# Columns and labels:
# MAGL = MAGL (Mus musculus (Mouse), UniProt O35678); experiment: In vitro competitive activity-based protein profiling, MAGL (mouse); type: biochemical; conditions: for inhibition at 1 µM: read-out: MAGL % inh. 1 μM (mouse)
# Outline: (§1)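 Residual MAGL and FAAH activity came from in-gel fluorescence after competition between inhibitor (30 min preincubation, 37° C) and the activity-based probe FP-Rh or HT-01 (30 min, 37° C) in mouse or human tissue or cell proteomes.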
# FAAH = FAAH (Mus musculus (Mouse), UniProt O08914); experiment: In vitro competitive activity-based protein profiling, FAAH (mouse); type: biochemical; conditions: for inhibition at 1 µM: read-out: FAAH % inh. 1 μM (mouse)
# Outline: as §1
# FAAH, sequence (O08914 whole entry): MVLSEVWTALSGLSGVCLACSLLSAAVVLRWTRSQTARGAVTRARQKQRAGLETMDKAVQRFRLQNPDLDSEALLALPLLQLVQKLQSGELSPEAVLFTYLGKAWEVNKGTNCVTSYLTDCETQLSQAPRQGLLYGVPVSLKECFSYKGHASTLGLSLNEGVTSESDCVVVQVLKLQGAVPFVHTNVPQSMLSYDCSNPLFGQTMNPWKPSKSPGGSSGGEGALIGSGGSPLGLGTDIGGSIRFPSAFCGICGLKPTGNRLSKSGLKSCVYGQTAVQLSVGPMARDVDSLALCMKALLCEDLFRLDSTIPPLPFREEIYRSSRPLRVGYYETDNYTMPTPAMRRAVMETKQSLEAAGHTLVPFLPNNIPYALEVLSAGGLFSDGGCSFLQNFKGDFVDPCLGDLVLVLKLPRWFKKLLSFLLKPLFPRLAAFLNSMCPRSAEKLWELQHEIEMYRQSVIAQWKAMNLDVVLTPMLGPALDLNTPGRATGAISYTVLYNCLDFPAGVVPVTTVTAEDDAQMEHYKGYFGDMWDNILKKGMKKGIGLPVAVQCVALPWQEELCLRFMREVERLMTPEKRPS
# MAGL, sequence (O35678 whole entry): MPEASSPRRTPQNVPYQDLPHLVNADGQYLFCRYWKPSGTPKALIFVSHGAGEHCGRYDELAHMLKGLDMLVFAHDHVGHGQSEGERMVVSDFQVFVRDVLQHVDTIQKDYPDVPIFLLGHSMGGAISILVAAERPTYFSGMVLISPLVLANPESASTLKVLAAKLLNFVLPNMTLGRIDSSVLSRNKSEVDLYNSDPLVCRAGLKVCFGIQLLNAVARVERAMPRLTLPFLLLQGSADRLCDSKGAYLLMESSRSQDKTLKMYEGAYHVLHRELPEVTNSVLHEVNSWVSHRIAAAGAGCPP
SMILES,inhibition at 1 µM (MAGL),inhibition at 1 µM (FAAH),IC50 (MAGL),IC50 (FAAH)
"CC(=O)N(C)c1cnn(C(=O)N2C[C@H]3C[C@@H](N(C)Cc4cc(C(F)(F)F)ccc4Cl)C[C@H]3C2)c1 [Example 163, N-(1-(cis-5-((2-chloro-5-(trifluoromethyl)benzyl)(methyl)amino)octahydrocyclopenta[c]pyrrole-2-carbonyl)-1H-pyrazol-4-yl)-N-methylacetamide]",≥ 75%,≥ 75%,,
"CC(=O)N(C)c1cnn(C(=O)N2C[C@H]3C[C@H](N(C)Cc4cc(Cl)ccc4C(F)(F)F)C[C@H]3C2)c1 [Example 164, N-(1-(trans-5-((5-chloro-2-(trifluoromethyl)benzyl)(methyl)amino)octahydrocyclopenta[c]pyrrole-2-carbonyl)-1H-pyrazol-4-yl)-N-methylacetamide]",≥ 75%,≥ 75%,≤ 100 nM,≤ 100 nM
"CC(=O)N(C)c1cnn(C(=O)N2C[C@H]3C[C@H](N(C)Cc4cc(Cl)ccc4Cl)C[C@H]3C2)c1 [Example 165, N-(1-(trans-5-((2,5-dichlorobenzyl)(methyl)amino)octahydrocyclopenta[c]pyrrole-2-carbonyl)-1H-pyrazol-4-yl)-N-methylacetamide]",≥ 75%,≥ 75%,,
"CC(=O)N(C)c1cnn(C(=O)N2C[C@H]3C[C@H](N(C)Cc4cc(C(F)(F)F)ccc4Cl)C[C@H]3C2)c1 [Example 166, N-(1-(trans-5-((2-chloro-5-(trifluoromethyl)benzyl)(methyl)amino)octahydrocyclopenta[c]pyrrole-2-carbonyl)-1H-pyrazol-4-yl)-N-methylacetamide]",≥ 75%,≥ 75%,,
"CC(=O)N(C)c1cnn(C(=O)N2C[C@H]3C[C@@H](N(C)Cc4cc(N5CCCC5)ccc4C(F)(F)F)C[C@H]3C2)c1 [Example 167, N-methyl-N-(1-(cis-5-(methyl(5-(pyrrolidin-1-yl)-2-(trifluoromethyl)benzyl)amino)octahydrocyclopenta[c]pyrrole-2-carbonyl)-1H-pyrazol-4-yl)acetamide]",≥ 75%,≥ 75%,,
"CC(=O)N(C)c1cnn(C(=O)N2C[C@H]3C[C@@H](N(C)Cc4cc(C(F)(F)F)ccc4N4CCCC4)C[C@H]3C2)c1 [Example 168, N-methyl-N-(1-(cis-5-(methyl(2-(pyrrolidin-1-yl)-5-(trifluoromethyl)benzyl)amino)octahydrocyclopenta[c]pyrrole-2-carbonyl)-1H-pyrazol-4-yl)acetamide]",≥ 75%,50 to 75%,,
"CC(=O)N(C)c1cnn(C(=O)N2C[C@H]3C[C@@H](N(Cc4ccccc4Cl)C(C)=O)C[C@H]3C2)c1 [Example 169, N-(2-chlorobenzyl)-N-(cis-2-(4-(N-methylacetamido)-1H-pyrazole-1-carbonyl)octahydrocyclopenta[c]pyrrol-5-yl)acetamide]",≥ 75%,25 to 50%,,
"CC(=O)N(C)c1cnn(C(=O)N2C[C@H]3C[C@@H](N(Cc4cccc(Cl)c4)C(C)=O)C[C@H]3C2)c1 [Example 170, N-(3-chlorobenzyl)-N-(cis-2-(4-(N-methylacetamido)-1H-pyrazole-1-carbonyl)octahydrocyclopenta[c]pyrrol-5-yl)acetamide]",≥ 75%,25 to 50%,,
"CC(=O)N(C)c1cnn(C(=O)N2C[C@H]3C[C@@H](N(Cc4ccc(Cl)cc4)C(C)=O)C[C@H]3C2)c1 [Example 171, N-(4-chlorobenzyl)-N-(cis-2-(4-(N-methylacetamido)-1H-pyrazole-1-carbonyl)octahydrocyclopenta[c]pyrrol-5-yl)acetamide]",≥ 75%,25 to 50%,,
"CC(=O)N(C)c1cnn(C(=O)N2C[C@H]3C[C@H](N(Cc4cccc(Cl)c4)C(C)=O)C[C@H]3C2)c1 [Example 173, N-(3-chlorobenzyl)-N-(trans-2-(4-(N-methylacetamido)-1H-pyrazole-1-carbonyl)octahydrocyclopenta[c]pyrrol-5-yl)acetamide]",≥ 75%,0 to 25%,,
"CC(=O)N(C)c1cnn(C(=O)N2C[C@H]3C[C@H](N(Cc4ccc(Cl)cc4)C(C)=O)C[C@H]3C2)c1 [Example 174, N-(4-chlorobenzyl)-N-(trans-2-(4-(N-methylacetamido)-1H-pyrazole-1-carbonyl)octahydrocyclopenta[c]pyrrol-5-yl)acetamide]",≥ 75%,0 to 25%,,
"CC(=O)N(C)c1cnn(C(=O)N2CC3CN(Cc4ccc(F)cc4)CC3C2)c1 (stereo not drawn) [Example 178, N-(1-(5-(4-fluorobenzyl)octahydropyrrolo[3,4-c]pyrrole-2-carbonyl)-1H-pyrazol-4-yl)-N-methylacetamide]",25 to 50%,≥ 75%,1000 to 10000 nM,100 to 1000 nM
"COc1ccc(CN2CC3CN(C(=O)n4cc(N(C)C(C)=O)cn4)CC3C2)cc1 (stereo not drawn) [Example 179, N-(1-(5-(4-methoxybenzyl)octahydropyrrolo[3,4-c]pyrrole-2-carbonyl)-1H-pyrazol-4-yl)-N-methylacetamide]",25 to 50%,≥ 75%,,
"CC(=O)N(C)c1cnn(C(=O)N2CC3CN(Cc4cccc(F)c4)CC3C2)c1 (stereo not drawn) [Example 180, N-(1-(5-(3-fluorobenzyl)octahydropyrrolo[3,4-c]pyrrole-2-carbonyl)-1H-pyrazol-4-yl)-N-methylacetamide]",50 to 75%,≥ 75%,100 to 1000 nM,100 to 1000 nM
"COc1cccc(CN2CC3CN(C(=O)n4cc(N(C)C(C)=O)cn4)CC3C2)c1 (stereo not drawn) [Example 181, N-(1-(5-(3-methoxybenzyl)octahydropyrrolo[3,4-c]pyrrole-2-carbonyl)-1H-pyrazol-4-yl)-N-methylacetamide]",50 to 75%,≥ 75%,1000 to 10000 nM,100 to 1000 nM
"CC(=O)N(C)c1cnn(C(=O)N2CC3CN(Cc4ccccc4F)CC3C2)c1 (stereo not drawn) [Example 182, N-(1-(5-(2-fluorobenzyl)octahydropyrrolo[3,4-c]pyrrole-2-carbonyl)-1H-pyrazol-4-yl)-N-methylacetamide]",≥ 75%,≥ 75%,100 to 1000 nM,≤ 100 nM
"CC(=O)N(C)c1cnn(C(=O)N2CC3CN(Cc4ccccc4N4CCCC4)CC3C2)c1 (stereo not drawn) [Example 184, N-methyl-N-(1-(5-(2-(pyrrolidin-1-yl)benzyl)octahydropyrrolo[3,4-c]pyrrole-2-carbonyl)-1H-pyrazol-4-yl)acetamide]",≥ 75%,50 to 75%,,
"CC(=O)N(C)c1cnn(C(=O)N2CC3CN(Cc4ccccc4N4CCOCC4)CC3C2)c1 (stereo not drawn) [Example 185, N-methyl-N-(1-(5-(2-morpholinobenzyl)octahydropyrrolo[3,4-c]pyrrole-2-carbonyl)-1H-pyrazol-4-yl)acetamide]",50 to 75%,0 to 25%,,
"CC(=O)N(C)c1cnn(C(=O)N2CCC3(CCN(Cc4ccccc4Cl)C3)CC2)c1 [Example 186, N-(1-(2-(2-chlorobenzyl)-2,8-diazaspiro[4.5]decane-8-carbonyl)-1H-pyrazol-4-yl)-N-methylacetamide]",≥ 75%,≥ 75%,≤ 100 nM,100 to 1000 nM
"CC(=O)N(C)c1cnn(C(=O)N2CCC3(CCN(Cc4cccc(Cl)c4)C3)CC2)c1 [Example 187, N-(1-(2-(3-chlorobenzyl)-2,8-diazaspiro[4.5]decane-8-carbonyl)-1H-pyrazol-4-yl)-N-methylacetamide]",≥ 75%,≥ 75%,100 to 1000 nM,100 to 1000 nM
"CC(=O)N(C)c1cnn(C(=O)N2CCC3(CCN(Cc4ccc(Cl)cc4)C3)CC2)c1 [Example 188, N-(1-(2-(4-chlorobenzyl)-2,8-diazaspiro[4.5]decane-8-carbonyl)-1H-pyrazol-4-yl)-N-methylacetamide]",≥ 75%,≥ 75%,100 to 1000 nM,100 to 1000 nM
"CC(=O)N(C)c1cnn(C(=O)N2CC3CN(Cc4ccc(OCC(=O)N5CCCC5)cc4Cl)CC3C2)c1 (stereo not drawn) [Example 189, N-(1-(5-(2-chloro-4-(2-oxo-2-(pyrrolidin-1-yl)ethoxy)benzyl)octahydropyrrolo[3,4-c]pyrrole-2-carbonyl)-1H-pyrazol-4-yl)-N-methylacetamide]",≥ 75%,0 to 25%,1000 to 10000 nM,100 to 1000 nM
"CC(=O)N(C)c1cnn(C(=O)N2CCN(Cc3cc(N4CCCC4)cc(C(F)(F)F)c3)CC2)c1 [Example 190, N-methyl-N-(1-(4-(3-(pyrrolidin-1-yl)-5-(trifluoromethyl)benzyl)piperazine-1-carbonyl)-1H-pyrazol-4-yl)acetamide]",≥ 75%,50 to 75%,≤ 100 nM,1000 to 10000 nM
"CC(=O)N(C)c1cnn(C(=O)N2CCN(Cc3ccc(C(F)(F)F)cc3N3CCCC3)CC2)c1 [Example 191, N-methyl-N-(1-(4-(2-(pyrrolidin-1-yl)-4-(trifluoromethyl)benzyl)piperazine-1-carbonyl)-1H-pyrazol-4-yl)acetamide]",≥ 75%,25 to 50%,≤ 100 nM,100 to 1000 nM
"CC(=O)N(C)c1cnn(C(=O)N2CCN(Cc3ccccc3Cl)CC2)c1 [Example 192, N-(1-(4-(2-chlorobenzyl)piperazine-1-carbonyl)-1H-pyrazol-4-yl)-N-methylacetamide]",≥ 75%,≥ 75%,100 to 1000 nM,100 to 1000 nM
"CC(=O)N(C)c1cnn(C(=O)N2CCN(Cc3cccc(Cl)c3)CC2)c1 [Example 193, N-(1-(4-(3-chlorobenzyl)piperazine-1-carbonyl)-1H-pyrazol-4-yl)-N-methylacetamide]",≥ 75%,≥ 75%,100 to 1000 nM,100 to 1000 nM
